Here are results for 4 molecules from patent US20140364405A1, “TREATMENT OF SEBORRHOEA” (McFarlane Marketing (Aust.)Pty. Ltd., priority 2011, published 2014).

Test [1] deals with skin sebum (skin surface lipids). The experiment in a line: Pilot clinical study: sebum reduction measured with Sebumeter SM810PC. It counts as in vivo, humans. The following applies: for sebum reduction: one side of face, after 28 days. The protocol: (§1) In an initial pilot study in humans, 3 topical formulations were evaluated for effectiveness in reduction of sebum or treatment of acne.
(§2) The active substance in each of these formulations was: • Formulation 1—natural isolutrol (sodium 24R—scymnol sulphate). • Formulation 2—synthetic (24R)—scymnol. • Formulation 3—synthetic racemic (24RS)—scymnol.
(§3) In each formulation, the active substance was incorporated at 0.015% w/w into an oil-free topical lotion. In the pilot study, each test formulation was applied to one side of the face of a test subject, twice daily, for 28 days in the case of Formulations 1 and 2, and for 42 days in the case of Formulation 3. For each test formulation, 10 healthy female test subjects participated in the pilot study.
For the evaluation of sebum reduction, a Sebumeter SM810PC (Courage+Khazaka electronic GmbH) was used to obtain measurement of skin sebum (skin surface lipids) on days 0, 3, 7, 14, 21, 28, 35 and 42. To accomplish this, a special purpose film of the cartridge measuring head was applied for 30 seconds to the relevant skin area. The cartridge was inserted into the Sebumeter SM810 PC for electronic determination of film transparency variations. The LC-display of the instrument presents the result in terms of μg/cm^2. Duplicated measurements were obtained on the same site at each visit, and the results were averaged.

The test system of test [2] is total acne lesion (pustules, papules and comedones) counts. The experiment in a line: Pilot clinical study: anti-acne treatment, total acne lesion counts. It counts as in vivo, humans. To be noted: 0.015% w/w in oil-free topical lotion, twice daily, over the 42 day test period. The protocol: as §1, §2, §3
For evaluation of anti-acne treatment, reduction in total acne lesion (pustules, papules and comedones) counts was measured.

Test [3] concerns liver dysfunction. To be noted: in vivo; cited from earlier work.
Test [4] relates to seborrhoea. To be noted: particularly when used topically; cited from earlier work.
Setting [5] is: 0.015% w/w in oil-free topical lotion, twice daily.

“racemic (24RS,25RS) sodium scymnol sulphate [racemic (24RS)-scymnol]”: in test [1] (setting [5]), the sebum reduction entry was “at least as effective in sebum reduction as the active substances of Formulations 1 and 2”. The “sebum reduction when test period extended” value in test [1] (0.015% w/w in oil-free topical lotion, twice daily, test period extended to 42 days) is “sebum reduction continued”. Further, in test [2], the “reduction of total acne lesion counts” value is “effective in reduction of total acne lesion counts”.

For the molecule `C[C@H](CC[C@@H](O)C(CO)CO)[C@H]1CC[C@H]2[C@@H]3[C@H](O)C[C@@H]4C[C@H](O)CC[C@]4(C)[C@H]3C[C@H](O)[C@]12C` [(24R)-scymnol, 24R-(+)-5β-cholestane-3α,7α,12α,24,26,27-hexol], the sebum reduction entry in test [1] (setting [5]) is “at least as effective in sebum reduction as the active substance of Formulation 1”. In addition, the “treatment of liver dysfunction” value in test [3] is “activity in the treatment of liver dysfunction”.

For the molecule `C[C@H](CC[C@@H](O)C(CO)CO)[C@H]1CC[C@H]2[C@@H]3[C@H](O)C[C@@H]4C[C@H](O)CC[C@]4(C)[C@H]3C[C@H](O)[C@]12C` [(24S)-scymnol], the “effect of presence of the non-natural enantiomer in the racemate on the sebum study” value in test [1] (as component of racemic (24RS)-scymnol of Formulation 3) was “no adverse effect in the sebum study”.

As for `CC(CC[C@@H](O)C(CO)COS(=O)(=O)[O-])C1CCC2C3C(O)C[C@@H]4CC(O)CCC4(C)C3CC(O)C12C.[Na+]` (stereo partly drawn) [sodium 24R-scymnol sulphate, 24(+)-3α, 7α,12α,24,26-pentahydroxy-coprostane-27-sodium sulphate ester], the treatment of seborrhoea entry in test [4] was “effective in the treatment of seborrhoea”.
